Test results as given in patent publication US6362219B1 (Council of Scientific and Industrial Research, priority 1999, dated 2002).
“And” between values parts separate entries of the source, which are not always exact repeats. Equal entries are not always repeated. Where two headings read alike, the source gives them in different places.

Experiments:
[1] = test system: multi-drug resistant P. yoelii nigeriensis; assay: Blood schizontocidal activity in Swiss mice by rectal route; assay type: in vivo, Plasmodium yoelii nigeriensis; conditions: for Cure-rate Day 30 (%) / Parasitaemia % Day 5 / Parasitaemia % Day 7: in oil; for Parasitaemia % Day 5 / Parasitaemia % Day 7: 8 mice
Description: Test Parasite: Multi-drug resistant Plasmodium yoeli nigerienes (Rodent malaria strian). The P. yoeli nigerienses is a multi-drug resistant strain which is resistant to high oral doses of chloroquine (128 mg/kg×4), amodiaquine (128 mg/kg×4), meperaine (128 mg/kg×4), mefloquine (128 mg/kg×4), quinine (400 mg/kg×4) and halofantrine (32 mg/kg×4). […]. […] For higher doses (15 and 20 mg/kg) the drug was given in divided doses by rectal route. The tail blood smears of the mice were examined periodically after Giemsa staining upto 30 days post-infections.
Drug is dissolved in sterile ground nut oil for adminisitration.

[2] = test system: multi-drug resistant strain of P. yoelii nigeriensis; assay: Blood schizontocidal activity in Swiss mice and baby mice by intramuscular route; assay type: in vivo, Plasmodium yoelii nigeriensis; conditions: day 30
Description: Test Parasite: Multi-drug resistant Plasmodium yoeli nigerienes (Rodent malaria strian). The P. yoeli nigerienses is a multi-drug resistant strain which is resistant to high oral doses of chloroquine (128 mg/kg×4), amodiaquine (128 mg/kg×4), meperaine (128 mg/kg×4), mefloquine (128 mg/kg×4), quinine (400 mg/kg×4) and halofantrine (32 mg/kg×4). […]. […] The tail blood smears of the mice were examined periodically after Giemsa staining upto 30 days post-infection.
Drug treatment was started on day 0 (ie day of infection). Mice showing negative blood slide upto day 30 were considered as cured.

[3] = test system: multi-drug resistant P. yoelii nigeriensis; assay: Blood schizontocidal activity in Swiss mice by oral route; assay type: in vivo, Plasmodium yoelii nigeriensis; conditions: oral in oil, 30 mg/kg × 5, mice 25 ± 1 g
Description: Test Parasite: Multi-drug resistant Plasmodium yoeli nigerienes (Rodent malaria strian). The P. yoeli nigerienses is a multi-drug resistant strain which is resistant to high oral doses of chloroquine (128 mg/kg×4), amodiaquine (128 mg/kg×4), meperaine (128 mg/kg×4), mefloquine (128 mg/kg×4), quinine (400 mg/kg×4) and halofantrine (32 mg/kg×4). […].

Safety in healthy mice = assay type: in vivo; conditions: 30 mg/kg DHA × 5, 20 ± 1 g mice
[4] = oral tablets, 60 mg dose, cited from earlier work
[5] = oral artesunate; 95/Cl 387-9410, range 79-1394; cited from earlier work
[6] = cited from earlier work
[7] = cited from earlier work; remark: listed apart in the source
[8] = cited from earlier work; remark: listed apart in the source
[9] = cited from earlier work; for maximum plasma concentration by im route: in ng/mL
P. falcipurum = conditions: rectal suppository; cited from earlier work
malaria [10] = conditions: cited from earlier work
malaria [11] = conditions: cited from earlier work; remark: listed apart in the source
[12] = rabbit, in vivo; cited from earlier work
[13] = dog, in vivo; cited from earlier work
[14] = aqueous solution at pH 7-8; cited from earlier work
[15] = 5 mg/kg × 7, Swiss mice 20 ± 1 g
[16] = 20 mg/kg × 7, Swiss mice 20 ± 1 g
[17] = following oral artesunate administration

For `C[C@H]1[C@@H](O)O[C@@H]2O[C@@]3(C)CC[C@H]4[C@H](C)CC[C@@H]1[C@@]24OO3` [DHA, Dihydroartemisinin], the “number of mice negative (-ve) Day 5” value ([1]; 5 mg/kg × 7, of 8 mice) was “(8) 4-ve”, the “number of mice negative (-ve) Day 7” value ([1]; 5 mg/kg × 7, of 8 mice) was “(8) 4-ve” and the “Cure-rate Day 30 (%)” value [1, 15] was 25%. The “Parasitaemia % Day 5” value [1, 15] was 0.83 ± 1.31%, the “Parasitaemia % Day 7” value [1, 15] was 1.12 ± 1.55% and the “Cure-rate Day 30 (%)” value [1, 16] was 87%. For the same compound, the “Parasitaemia % Day 5” value [1, 16] was 0.0%, the “Parasitaemia % Day 7” value [1, 16] was 0.0% and the “Cure rate (%)” value ([2]; Expt. I, IM in oil, 5 mg/kg × 5, mice 20 ± 1 g) was 100% (8/8). For the same compound, the “Cure rate (%)” value ([2]; Expt. II, im in oil, 5 mg/kg × 5, mice 20 ± 1 g) was 100% (8/8), the “Cure rate (%)” value ([2]; Expt. II, im in oil, 10 mg/kg × 5, mice 20 ± 1 g) was 100% (8/8) and the “Cure rate (%)” value ([2]; Expt. III, im in oil, 5 mg/kg × 5, baby mice 12 ± 1 g) was 100% (9/9). The “Cure rate (%) Day 30” value [3] was 100%, the “Safety in Healthy mice” value (Safety in healthy mice) was “Safe 8/8” and the “peak plasma levels of dihydroartemisinin” value ([4]; four subjects) was 0.26 to 0.71 µg/mL. The tolerability ([4]; six cases) was “well tolerated in 2 subjects while 4 subjects experienced mild headache, nausea or vomiting”, the “complete excretion by” value [4] was ≤ 6 h and the elimination half-life [4] was 42.6 to 87 min. The “peak plasma concentration of DHA” value [5] was 664 ng of DHA/ml, the “DHA activity AUC” value ([6]; im route) was 3445 n Mlo l^−1 h and the “duration of activity due to DHA” value ([6]; im route) was “over 30 h”. For the same compound, the “duration of effective level” value ([6]; oral dose) was ≤ 10 h, the Elimination half life ([7]; oral, rats) was 296 ± 43.8 min and the “area under plasma concentration time curve” value ([7]; oral, rats) was 9615±56 ngh ml^−1. For the same compound, the “DHA level compared to that of artesunate” value [8, 17] was 5 fold, the maximum plasma level [8, 17] was 0.57 ± 0.18 µg/mL and the “maximum plasma concentration by im route” value ([9]; rats) was 1579±443. For the same compound, the “Absorption 0-8 h” value ([9]; rats, single IM dose) was 85.4±12.1% and 85.4%, the Area under plasma concentration ([9]; rats, single IM dose) was 2.72 µg·h/mL and the Elimination half life ([9]; rats, single IM dose) was 266 ± 16.2 min. The Mean absorption time ([9]; rats, single IM dose) was 0.21 h, the “Time of maximum plasma Concentration” value ([9]; rats, single IM dose) was 17.5 min and the “maximum plasma concentration” value ([9]; rats, single IM dose) was 1579 ng/mL.
For `CCO[C@H]1O[C@@H]2O[C@@]3(C)CC[C@H]4[C@H](C)CC[C@@H]([C@H]1C)[C@@]24OO3` [arteether], the Elimination half life ([7]; oral, rats) is given as 107 ± 28.2 min, the “area under plasma concentration time curve” value ([7]; oral, rats) is given as 298±68 ngh ml^−1 and the maximum plasma concentration ([7]; oral, rats) is given as 324 ± 10 ng/mL. The “maximum plasma concentration by im route” value ([9]; rats) was 160±12.4, the Distribution half life ([9]; rats, single IM dose) was 20.4 ± 4.2 min and the Mean absorption time ([9]; rats, single IM dose) was 0.25 ± 0.06 h. For the same compound, the “Time of maximum plasma Concentration” value ([9]; rats, single IM dose) was 41.4 ± 14.7 min, the “maximum plasma concentration” value ([9]; rats, single IM dose) was 160.7 ± 12.4 ng/mL and the “Absorption 0-8 h” value ([9]; rats, single IM dose, listed as AE) was 34.0±9.6%.
In the case of `CO[C@H]1O[C@@H]2O[C@@]3(C)CC[C@H]4[C@H](C)CC[C@@H]([C@H]1C)[C@@]24OO3` [artemether], the Elimination half life ([7]; oral, rats) is given as 122 ± 10.8 min, the “area under plasma concentration time curve” value ([7]; oral, rats) is given as 306±52 ngh ml^−1 and the maximum plasma concentration ([7]; oral, rats) is given as 381 ± 113 ng/mL. The “maximum plasma concentration by im route” value ([9]; rats) was 692±234, the “Absorption 0-8 h” value ([9]; rats, single IM dose) was 54.2±25.9% and 54.3% and the Area under plasma concentration ([9]; rats, single IM dose) was 1.01 µg·h/mL. For the same compound, the Distribution half life ([9]; rats, single IM dose) was 13.8 min, the Elimination half life ([9]; rats, single IM dose) was 107 ± 48 min and the Mean absorption time ([9]; rats, single IM dose) was 0.14 h. The “Time of maximum plasma Concentration” value ([9]; rats, single IM dose) was 28.8 min and the “maximum plasma concentration” value ([9]; rats, single IM dose) was 692 ng/mL.
In the case of `C[C@@H]1CC[C@H]2[C@@H](C)C(=O)O[C@@H]3O[C@@]4(C)CC[C@@H]1[C@]32OO4` [artemisinin], the recovery from coma (P. falcipurum) is listed as 24 (18-30) h and the cure rate (malaria [10]; high doses upto 5.0 g) is listed as 55%.
In the case of `C[C@H]1[C@H](OC(=O)CCC(=O)O)O[C@@H]2O[C@@]3(C)CC[C@H]4[C@H](C)CC[C@@H]1[C@@]24OO3` [artesunate], the “times more potent than artemisinin” value (malaria [11]) is listed as 3.2 times, the cure rate (malaria [10]; upto 750 mg) is listed as 70-90% and the Elimination half life ([7]; rat, in vivo, po) is listed as 80.4 ± 1560 min. For the same compound, the “area under plasma concentration time curve” value ([7]; rat, in vivo, po) was 217±34 ngh ml^−1, the maximum plasma concentration ([7]; rat, in vivo, po) was 208 ± 25 ng/mL and the maximum plasma level ([8]; in vivo, po) was 0.12 ± 0.11 µg/mL. For the same compound, the elimination half-life [12] was 2 to 4 min, the elimination half-life [13] was 27 min and the Distribution half life ([9]; rat, in vivo, im) was 9 ± 3.6 min. For the same compound, the Elimination half life ([9]; rat, in vivo, im) was 32.4 ± 8.4 min and the “Time of maximum plasma Concentration” value ([9]; rat, in vivo) was 15.0 ± 4.1 min.
For `C[C@H]1[C@H](OC(=O)CCC(=O)[O-])O[C@@H]2O[C@@]3(C)CC[C@H]4[C@H](C)CC[C@@H]1[C@@]24OO3.[Na+]` [sodium artesunate], the “time of hydrolysis to DHA” value [14] is given as ≤ 1 h.
